Test results reported in PubChem BioAssay AID220 (DTP/NCI, 2004).
“And” between values parts separate entries of the source, which are not always exact repeats. Equal values may be shown once. Inconclusive results are not listed.

Tested on: CD8F1 mice, subcutaneous mammary adenocarcinoma, T/C%
Test: NCI In Vivo Anticancer Drug Screen. Data for tumor model Mammary Adenocarcinoma CD8F1 (subcutaneous) in CD8F1
Conditions: higher = larger tumour
Description: The antitumor activity of compounds was measured in mice bearing transplantable tumors. Survival or tumor size were measured and the results are expressed as the measurement made in the treated group (T) divided by the measurement made in the vehicle treated control group (C). The tumor model used in this assay is Mammary Adenocarcinoma CD8F1 (subcutaneous) in CD8F1

[1] = endpoint: median tumor weight (est.), dose: 2.0 mg/kg/injection, schedule: Q07DX005 (ip), vehicle: saline
[2] = endpoint: median tumor weight (est.), dose: 4.0 mg/kg/injection, schedule: Q07DX005 (ip), vehicle: saline
[3] = endpoint: median tumor weight (est.), dose: 8.0 mg/kg/injection, schedule: Q07DX005 (ip), vehicle: saline
[4] = endpoint: median tumor weight (est.), dose: 12.5 mg/kg/injection, schedule: Q07DX005 (ip), vehicle: Klucel (hydroxypropylcellulose) (HPC)
[5] = endpoint: median tumor weight (est.), dose: 25.0 mg/kg/injection, schedule: Q07DX005 (ip), vehicle: Klucel (hydroxypropylcellulose) (HPC)
[6] = endpoint: median tumor weight (est.), dose: 100.0 mg/kg/injection, schedule: Q07DX005 (ip), vehicle: Klucel (hydroxypropylcellulose) (HPC)
[7] = endpoint: median tumor weight (est.), dose: 25.0 mg/kg/injection, schedule: Q07DX005 (ip), vehicle: suspension in saline
[8] = endpoint: median tumor weight (est.), dose: 50.0 mg/kg/injection, schedule: Q07DX005 (ip), vehicle: suspension in saline
[9] = endpoint: median tumor weight (est.), dose: 100.0 mg/kg/injection, schedule: Q07DX005 (ip), vehicle: suspension in saline

For S=P(N1CC1)(N1CC1)N1CC1, the T/C (endpoint: mean tumor weight, dose: 1.0 mg/kg/injection, schedule: Q01DX009 (ip), vehicle: saline) was 45 % of control, the T/C (endpoint: mean tumor weight, dose: 2.0 mg/kg/injection, schedule: Q01DX009 (ip), vehicle: saline) was 7 % of control and the T/C (endpoint: mean tumor weight, dose: 4.0 mg/kg/injection, schedule: Q07DX005 (ip), vehicle: saline) was 354 % of control. For the same compound, the T/C (endpoint: mean tumor weight, dose: 4.0 mg/kg/injection, schedule: Q07DX006 (ip), vehicle: saline) was 20 % of control, the T/C (endpoint: mean tumor weight, dose: 4.0 mg/kg/injection, schedule: Q07DX007 (ip), vehicle: saline) was 1 % of control and the T/C (endpoint: mean tumor weight, dose: 8.0 mg/kg/injection, schedule: Q07DX005 (ip), vehicle: saline) was 597 % of control. For the same compound, the T/C (endpoint: mean tumor weight, dose: 8.0 mg/kg/injection, schedule: Q07DX006 (ip), vehicle: saline) was 3 % of control, the T/C (endpoint: mean tumor weight, dose: 8.0 mg/kg/injection, schedule: Q07DX007 (ip), vehicle: saline) was 6 % of control and the T/C (endpoint: mean tumor weight, dose: 16.0 mg/kg/injection, schedule: Q07DX005 (ip), vehicle: saline) was 61 % of control. The T/C (endpoint: median tumor weight (est.), dose: 0.5 mg/kg/injection, schedule: Q07DX005 (ip), vehicle: saline) was 96 % of control, the T/C (endpoint: median tumor weight (est.), dose: 1.0 mg/kg/injection, schedule: Q07DX005 (ip), vehicle: saline) was 157 % of control and the T/C [1] was 159 % of control. The T/C [2] was 42 % of control and the T/C [3] was 15 % of control.

CN(C)CCOc1ccc2c(c1)C/C(=C/c1ncc([N+](=O)[O-])n1C)C2=O was tested, and the T/C (endpoint: median tumor weight (est.), dose: 12.5 mg/kg/injection, schedule: Q07DX005 (ip), vehicle: saline with Tween-80) was 113 % of control, the T/C (endpoint: median tumor weight (est.), dose: 25.0 mg/kg/injection, schedule: Q07DX005 (ip), vehicle: saline with Tween-80) was 100 % of control and the T/C (endpoint: median tumor weight (est.), dose: 50.0 mg/kg/injection, schedule: Q07DX005 (ip), vehicle: saline with Tween-80) was 93 % of control. For the same compound, the T/C (endpoint: median tumor weight (est.), dose: 100.0 mg/kg/injection, schedule: Q07DX005 (ip), vehicle: saline with Tween-80) was 61 % of control.

In the case of COC(=O)[C@@]12OC[C@]34[C@H]([C@@H](O)[C@@H]1O)[C@@]1(C)CC(=O)C(O)=C(C)[C@@H]1C[C@H]3OC(=O)[C@H](OC(=O)/C=C(/C)C(C)(C)O)[C@@H]24, the T/C (endpoint: median tumor weight (est.), dose: 0.05 mg/kg/injection, schedule: Q07DX005 (ip), vehicle: saline) is reported as 92 % of control, the T/C (endpoint: median tumor weight (est.), dose: 0.1 mg/kg/injection, schedule: Q07DX005 (ip), vehicle: saline) is reported as 88 % of control and the T/C (endpoint: median tumor weight (est.), dose: 0.2 mg/kg/injection, schedule: Q07DX005 (ip), vehicle: saline) is reported as 67 % of control. For the same compound, the T/C (endpoint: median tumor weight (est.), dose: 0.4 mg/kg/injection, schedule: Q07DX005 (ip), vehicle: saline) was 100 % of control and the T/C (endpoint: median tumor weight (est.), dose: 0.8 mg/kg/injection, schedule: Q07DX005 (ip), vehicle: saline) was 90 % of control.

With Nc1ccccc1N the T/C [4] was 117 % of control, the T/C [5] was 155 % of control and the T/C [6] was 122 % of control. For the same compound, the T/C (endpoint: median tumor weight (est.), dose: 400.0 mg/kg/injection, schedule: Q07DX005 (ip), vehicle: Klucel (hydroxypropylcellulose) (HPC)) was 35 % of control.

For Nc1ccc(Cl)cc1N, the T/C (endpoint: median tumor weight (est.), dose: 12.5 mg/kg/injection, schedule: Q07DX005 (ip), vehicle: saline + alcohol) was 92 % of control, the T/C (endpoint: median tumor weight (est.), dose: 25.0 mg/kg/injection, schedule: Q07DX005 (ip), vehicle: saline + alcohol) was 100 % of control and the T/C (endpoint: median tumor weight (est.), dose: 50.0 mg/kg/injection, schedule: Q07DX005 (ip), vehicle: saline + alcohol) was 100 % of control. The T/C (endpoint: median tumor weight (est.), dose: 100.0 mg/kg/injection, schedule: Q07DX005 (ip), vehicle: saline + alcohol) was 88 % of control and the T/C (endpoint: median tumor weight (est.), dose: 200.0 mg/kg/injection, schedule: Q07DX005 (ip), vehicle: saline + alcohol) was 123 % of control.

In the case of c1ccc(CN2CCOC2)cc1, the T/C (endpoint: median tumor weight (est.), dose: 12.5 mg/kg/injection, schedule: Q07DX005 (ip), vehicle: suspension in saline) is reported as 51 % of control, the T/C [7] is reported as 43 % of control and the T/C [8] is reported as 62 % of control. For the same compound, the T/C [9] was 87 % of control.

For ClCCCN1CCN(CCCl)CC1, the T/C (endpoint: median tumor weight change, dose: 10.0 mg/kg/injection, schedule: Q01DX001 (ip), vehicle: saline) was 92 % of control and 97 % of control, the T/C (endpoint: median tumor weight change, dose: 14.4 mg/kg/injection, schedule: Q01DX001 (ip), vehicle: saline) was 88 % of control and the T/C (endpoint: median tumor weight change, dose: 20.0 mg/kg/injection, schedule: Q01DX001 (ip), vehicle: saline) was 27 % of control and 52 % of control. The T/C (endpoint: median tumor weight change, dose: 24.0 mg/kg/injection, schedule: Q01DX001 (ip), vehicle: saline) was 15 % of control.

With O=C1CCC(=O)N1CO the T/C (endpoint: median tumor weight change, dose: 125.0 mg/kg/injection, schedule: Q01DX001 (ip), vehicle: saline) was 97 % of control, the T/C (endpoint: median tumor weight change, dose: 250.0 mg/kg/injection, schedule: Q01DX001 (ip), vehicle: saline) was 89 % of control and the T/C (endpoint: median tumor weight change, dose: 500.0 mg/kg/injection, schedule: Q01DX001 (ip), vehicle: saline) was 81 % of control. The T/C (endpoint: median tumor weight change, dose: 1000.0 mg/kg/injection, schedule: Q01DX001 (ip), vehicle: saline) was 75 % of control.

CC[C@H]1CN2CCc3cc(OC)c(OC)cc3[C@@H]2C[C@@H]1C[C@H]1NCCc2cc(O)c(OC)cc21 was tested, and the T/C [1] was 67 % of control, the T/C [2] was 95 % of control and the T/C [3] was 92 % of control. The T/C (endpoint: median tumor weight (est.), dose: 16.0 mg/kg/injection, schedule: Q07DX005 (ip), vehicle: saline) was 47 % of control.

With COc1cc2c(c(OC)c1O)-c1ccc(OC)c(=O)cc1[C@@H](NC(=O)C(F)(F)F)CC2 the T/C (endpoint: median tumor weight change, dose: 3.12 mg/kg/injection, schedule: Q01DX001 (ip), vehicle: Klucel (hydroxypropylcellulose) (HPC)) was 100 % of control, the T/C (endpoint: median tumor weight change, dose: 6.25 mg/kg/injection, schedule: Q01DX001 (ip), vehicle: Klucel (hydroxypropylcellulose) (HPC)) was 203 % of control and the T/C (endpoint: median tumor weight change, dose: 12.5 mg/kg/injection, schedule: Q01DX001 (ip), vehicle: Klucel (hydroxypropylcellulose) (HPC)) was 74 % of control. For the same compound, the T/C (endpoint: median tumor weight change, dose: 25.0 mg/kg/injection, schedule: Q01DX001 (ip), vehicle: Klucel (hydroxypropylcellulose) (HPC)) was 168 % of control and the T/C (endpoint: median tumor weight change, dose: 50.0 mg/kg/injection, schedule: Q01DX001 (ip), vehicle: Klucel (hydroxypropylcellulose) (HPC)) was 21 % of control.

For CC1(O)CC23CC(O)C4(O)C(CC(O)C4(C)C)C(C)(O)C2CCC1C3O (centres undefined), the T/C (endpoint: median tumor weight change, dose: 0.25 mg/kg/injection, schedule: Q01DX001 (ip), vehicle: Klucel (hydroxypropylcellulose) (HPC)) was 39 % of control and the T/C (endpoint: median tumor weight change, dose: 0.5 mg/kg/injection, schedule: Q01DX001 (ip), vehicle: Klucel (hydroxypropylcellulose) (HPC)) was 73 % of control.

For COc1ccc(CC2C(=O)NC(C)C(=O)N(C)C3C(=O)N(C)C(Cc4ccc(O)c(c4)Oc4ccc(cc4)C3O)C(=O)NC(C)C(=O)NC(C)C(=O)N2C)cc1 (centres undefined), the T/C (endpoint: median tumor weight (est.), dose: 0.12 mg/kg/injection, schedule: Q07DX005 (ip), vehicle: suspension in saline) was 116 % of control, the T/C (endpoint: median tumor weight (est.), dose: 0.25 mg/kg/injection, schedule: Q07DX005 (ip), vehicle: suspension in saline) was 93 % of control and the T/C (endpoint: median tumor weight (est.), dose: 0.5 mg/kg/injection, schedule: Q07DX005 (ip), vehicle: suspension in saline) was 95 % of control. For the same compound, the T/C (endpoint: median tumor weight (est.), dose: 1.0 mg/kg/injection, schedule: Q07DX005 (ip), vehicle: suspension in saline) was 94 % of control, the T/C (endpoint: median tumor weight (est.), dose: 2.0 mg/kg/injection, schedule: Q07DX005 (ip), vehicle: suspension in saline) was 99 % of control and the T/C (endpoint: median tumor weight (est.), dose: 4.0 mg/kg/injection, schedule: Q07DX005 (ip), vehicle: suspension in saline) was 114 % of control.

For COc1cc2c(cc1O)N=C[C@@H]1CCC(O)N1C2=O (mixture of isomers), the T/C [1] was 103 % of control, the T/C [2] was 79 % of control and the T/C [3] was 160 % of control.

In the case of CC(=O)OC1(C)CC(C)C(=O)C(C(O)CC2CC(=O)NC(=O)C2)C1 (centres undefined), the T/C (endpoint: median tumor weight (est.), dose: 94.0 micrograms/kg/injection, schedule: Q07DX005 (ip), vehicle: saline) is reported as 57 % of control, the T/C (endpoint: median tumor weight (est.), dose: 188.0 micrograms/kg/injection, schedule: Q07DX005 (ip), vehicle: saline) is reported as 34 % of control and the T/C (endpoint: median tumor weight (est.), dose: 375.0 micrograms/kg/injection, schedule: Q07DX005 (ip), vehicle: saline) is reported as 37 % of control. For the same compound, the T/C (endpoint: median tumor weight (est.), dose: 750.0 micrograms/kg/injection, schedule: Q07DX005 (ip), vehicle: saline) was 32 % of control.

CCOC(=O)C1C2OC(=O)C(C(=O)C2CN(CCCl)CCCl)C1C1CC=C(CC2=CCC(C3C4C(=O)OC(C(CN(CCCl)CCCl)C4=O)C3C(=O)OCC)CC2)CC1 (centres undefined) was tested, and the T/C [4] was 49 % of control, the T/C [5] was 70 % of control and the T/C (endpoint: median tumor weight (est.), dose: 50.0 mg/kg/injection, schedule: Q07DX005 (ip), vehicle: Klucel (hydroxypropylcellulose) (HPC)) was 31 % of control. For the same compound, the T/C [6] was 1 % of control.

With CCN(CC)CCCC(C)Nc1c2ccc(Cl)cc2nc2ccc(OC)cc12 (centres undefined) the T/C (endpoint: median tumor weight (est.), dose: 12.5 mg/kg/injection, schedule: Q07DX005 (ip), vehicle: saline) was 88 % of control, the T/C (endpoint: median tumor weight (est.), dose: 25.0 mg/kg/injection, schedule: Q07DX005 (ip), vehicle: saline) was 65 % of control and the T/C [7] was 60 % of control. The T/C (endpoint: median tumor weight (est.), dose: 50.0 mg/kg/injection, schedule: Q07DX005 (ip), vehicle: saline) was 90 % of control, the T/C [8] was 94 % of control and the T/C (endpoint: median tumor weight (est.), dose: 100.0 mg/kg/injection, schedule: Q07DX005 (ip), vehicle: saline) was 74 % of control. The T/C [9] was 50 % of control.
